Assay results reported in ChEMBL document CHEMBL5120859, “Optimization of 4-arylthiophene-3-carboxylic acid derivatives as inhibitors of ANO1: Lead optimization studies toward their analgesic efficacy for inflammatory pain” (Eur J Med Chem, 2022).
Activity calls are given as the source filed them. The calls are words filed in the database; no cut-off is given here.

What was measured:
[1] = Brain concentration in C57BL/6 mouse at 40 mg/kg,IG measured after 24 hrs by HPLC analysis; assay type: ADME, organism-based; details: po, read-out: Ct
[2] = Plasma concentration in C57BL/6 mouse at 40 mg/kg,IG measured after 6 hrs by HPLC analysis; assay type: ADME, organism-based; details: po
[3] = Cmax in C57BL/6 mouse at 40 mg/kg,IG measured upto 24 hrs by HPLC-MS/MS analysis; assay type: ADME, organism-based; parameters: dose 40 mg/kg, time < 24 hrs, route ig; details: in vivo, po
[4] = MRT (0 to t) in C57BL/6 mouse at 80 mg/kg,IG measured upto 24 hrs by HPLC-MS/MS analysis; assay type: ADME, organism-based; details: in vivo, po
[5] = MRT (0 to t) in C57BL/6 mouse at 40 mg/kg,iv measured upto 24 hrs by HPLC-MS/MS analysis; assay type: ADME, organism-based; details: in vivo
[6] = Volume of distribution at steady state in C57BL/6 mouse at 40 mg/kg,iv measured upto 24 hrs by HPLC-MS/MS analysis; assay type: ADME, organism-based; details: in vivo, read-out: Vdss
[7] = AUC (0 to t) in C57BL/6 mouse at 40 mg/kg,iv measured upto 24 hrs by HPLC-MS/MS analysis; assay type: ADME, organism-based; parameters: dose 40 mg/kg, time < 24 hrs, route iv; details: in vivo
[8] = AUC (0 to t) in C57BL/6 mouse at 40 mg/kg,IG measured upto 24 hrs by HPLC-MS/MS analysis; assay type: ADME, organism-based; parameters: dose 40 mg/kg, time < 24 hrs, route ig; details: in vivo, po
[9] = Cmax in C57BL/6 mouse at 40 mg/kg,iv measured upto 24 hrs by HPLC-MS/MS analysis; assay type: ADME, organism-based; parameters: time < 24 hrs, dose 40 mg/kg, route iv; details: in vivo
[10] = Plasma concentration in C57BL/6 mouse at 40 mg/kg,IG measured after 24 hrs by HPLC analysis; assay type: ADME, organism-based; details: po
[11] = system: Mus musculus; experiment: Analgesic activity in C57BL/6 mouse model of capsaicin-induced allodynia assessed as reduction on foot licking pain response at 80 mg/kg,po measured after 5 mins; assay type: functional, organism-based
[12] = Toxicity in C57BL/6 mouse model of capsaicin-induced allodynia assessed as increase in body temperature at 40 to 80 mg/kg,po; assay type: organism-based; details: in vivo, dose 40-80 mg/kg
[13] = Bioavailability in C57BL/6 mouse at 80 mg/kg,IG measured upto 24 hrs by HPLC-MS/MS analysis; assay type: ADME, organism-based; details: in vivo, po
[14] = Plasma concentration in C57BL/6 mouse at 40 mg/kg,IG measured after 0.25 hrs by HPLC analysis; assay type: ADME, organism-based; details: po
[15] = Bioavailability in C57BL/6 mouse at 40 mg/kg,IG measured upto 24 hrs by HPLC-MS/MS analysis; assay type: ADME, organism-based; details: in vivo, po
[16] = Brain concentration in C57BL/6 mouse at 40 mg/kg,IG measured after 6 hrs by HPLC analysis; assay type: ADME, organism-based; details: po, read-out: Ct
[17] = biological target: T1, Anoctamin-1 (Homo sapiens) (UniProt Q5XXA6); experiment: Inhibition of YFP tagged ANO1 (unknown origin) expressed in FRT cells at 30 uM incubated for 24 hrs by whole cell patch clamp electrophysiology relative to control; assay type: cell-based
T1 sequence (whole entry): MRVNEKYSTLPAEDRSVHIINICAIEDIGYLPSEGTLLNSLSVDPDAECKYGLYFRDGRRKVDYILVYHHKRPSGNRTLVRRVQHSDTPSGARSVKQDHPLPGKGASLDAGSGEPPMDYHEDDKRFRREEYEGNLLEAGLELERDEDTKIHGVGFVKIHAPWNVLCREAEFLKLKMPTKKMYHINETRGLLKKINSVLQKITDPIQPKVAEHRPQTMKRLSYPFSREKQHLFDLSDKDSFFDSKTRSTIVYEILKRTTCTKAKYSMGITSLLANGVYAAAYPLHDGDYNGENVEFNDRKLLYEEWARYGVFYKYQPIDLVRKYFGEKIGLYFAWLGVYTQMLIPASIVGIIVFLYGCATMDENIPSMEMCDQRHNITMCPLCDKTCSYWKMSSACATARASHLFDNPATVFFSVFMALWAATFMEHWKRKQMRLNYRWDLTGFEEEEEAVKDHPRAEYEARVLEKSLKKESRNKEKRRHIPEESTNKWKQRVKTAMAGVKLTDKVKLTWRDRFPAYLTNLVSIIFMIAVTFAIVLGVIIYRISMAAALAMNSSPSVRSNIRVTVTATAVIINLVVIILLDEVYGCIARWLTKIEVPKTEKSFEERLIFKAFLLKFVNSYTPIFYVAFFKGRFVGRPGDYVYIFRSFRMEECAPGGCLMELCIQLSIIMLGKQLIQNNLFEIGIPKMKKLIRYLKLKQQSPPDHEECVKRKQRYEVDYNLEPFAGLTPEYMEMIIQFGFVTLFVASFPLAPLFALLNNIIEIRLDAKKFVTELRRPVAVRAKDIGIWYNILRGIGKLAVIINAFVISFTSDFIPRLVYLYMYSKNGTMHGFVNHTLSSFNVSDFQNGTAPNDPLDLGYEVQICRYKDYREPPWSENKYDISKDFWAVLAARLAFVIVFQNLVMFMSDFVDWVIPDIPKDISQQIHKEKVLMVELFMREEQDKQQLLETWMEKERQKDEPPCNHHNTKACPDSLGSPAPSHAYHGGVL

O=C(Nc1scc(-c2ccc(Cl)cc2)c1C(=O)O)c1cc(F)ccc1F
concentration at 24 h [1]: 74.8 ng/g | concentration at 6 h [2]: 24.3 µg/mL | Cmax [3]: 97.7 µg/mL | MRT last at 24 h [4]: 7.6 h | MRT last at 24 h [5]: 4.9 h | Vd [6]: 0.8 L/kg | AUC(0-t) at 24 h [7]: 350 µg·h/mL | AUC(0-t) at 24 h [8]: 265 µg·h/mL | Cmax [9]: 183 µg/mL | concentration at 24 h [10]: 1.67 µg/mL | Activity [11]: Active | Activity [12]: Non-Toxic | bioavailability [13]: 85.1% | concentration at 0.25 h [14]: 97.7 µg/mL | bioavailability [15]: 75.7% | concentration at 6 h [16]: 337 ng/g | inhibition [17]: 95.6%
